{"source": "ChEMBL document CHEMBL3046264", "about": "“Juvenile hormone activity of ethyl 4-(2-aryloxyhexyloxy)benzoates with precocious metamorphosis-inducing activity” (Biosci Biotechnol Biochem, 2007)", "key": {"[1]": {"system": "Bombyx mori", "test": "Induction of precocious metamorphosis in allatectomized fourth-instar larvae of Bombyx mori Shunei x Shougetsu assessed as juvenile hormone activity at 1 ug applied topically to dorsal abdomen of larvae", "assay_type": "functional, organism-based"}, "[2]": {"system": "Bombyx mori", "test": "Induction of precocious metamorphosis in allatectomized fourth-instar larvae of Bombyx mori Shunei x Shougetsu assessed as juvenile hormone activity at 10 to 40 ug applied topically to dorsal abdomen of larvae", "assay_type": "functional, organism-based"}}, "note": "Calls of active or inactive are those of the source. The calls are words filed in the database; no cut-off is given here.", "data": [{"smiles": "CCCCC(COc1ccc(C(=O)OCC)cc1)Oc1ccccc1", "note": "(stereo unspecified)", "values": [{"measurement": "Activity", "setting": "[1]", "value": "inactive"}, {"measurement": "Activity", "setting": "[2]", "value": "Active"}]}, {"smiles": "CCOC(=O)c1ccc(OCC(CC)OC(=O)C(C)(C)C)cc1", "note": "(stereo unspecified)", "values": [{"measurement": "Activity", "setting": "[1]", "value": "Active"}]}, {"smiles": "COC(C)(C)CCC[C@H](C)C/C=C/C(C)=C/C(=O)OC(C)C", "values": [{"measurement": "Activity", "setting": "[1]", "value": "Active"}]}, {"smiles": "CCCCC(COc1ccc(C(=O)OCC)cc1)Oc1ccc(C)nc1", "note": "(stereo unspecified)", "values": [{"measurement": "Activity", "setting": "[1]", "value": "inactive"}, {"measurement": "Activity", "setting": "[2]", "value": "Active"}]}]}
